We go through 3 compounds from ChEMBL document CHEMBL1154454, “Tetrahydronaphthyl azole oxime ethers: the conformationally rigid analogues of oxiconazole as antibacterials” (2009).

Assay [1] concerns Pseudomonas aeruginosa.
Assay [2] has as its system Escherichia coli. The following applies: ATCC 9637.
Description: (§1) Antimicrobial activity against Escherichia coli ATCC 9637 after 24 hrs by standard microbroth dilution assay
Assay [3] has as its system Klebsiella pneumoniae. The following applies: ATCC 27736.
Description: (§2) Antimicrobial activity against Klebsiella pneumoniae ATCC 27736 after 24 hrs by standard microbroth dilution assay
Assay [4] has as its system Staphylococcus aureus. As to conditions: ATCC 25923.
Description: (§3) Antimicrobial activity against Staphylococcus aureus ATCC 25923 after 24 hrs by standard microbroth dilution assay
Assay [5] has as its system Klebsiella pneumoniae. The assay can be described thus: microbe, parasite or virus in culture. As to conditions: ATCC 27736, 24 h. It counts as functional.
Description: as §2
For assay [6], the system named is Sporothrix schenckii. Briefly: Antimicrobial activity against Sporothrix schenckii after 72 hrs by standard microbroth dilution assay. It counts as functional.
Assay [7] concerns Pseudomonas aeruginosa. Briefly: Antimicrobial activity against Pseudomonas aeruginosa ATCC BAA427 after 24 hrs by standard microbroth dilution assay. In kind it is functional.
For assay [8], the system named is Aspergillus fumigatus. The assay can be described thus: Antimicrobial activity against Aspergillus fumigatus after 72 hrs by standard microbroth dilution assay. In kind it is functional.
For assay [9], the system named is Cryptococcus neoformans. The assay can be described thus: Antimicrobial activity against Cryptococcus neoformans after 72 hrs by standard microbroth dilution assay. In kind it is functional. (Dilution methods test growth across graded concentrations, often in twofold steps.)
The subject of assay [10] is Escherichia coli. The assay can be described thus: microbe, parasite or virus in culture. It counts as functional. The following applies: ATCC 9637, 24 h.
Description: as §1
Assay [11] concerns Candida albicans. The assay can be described thus: Antimicrobial activity against Candida albicans after 48 hrs by standard microbroth dilution assay. It counts as functional.
Assay [12] concerns Candida parapsilosis. Briefly: Antimicrobial activity against Candida parapsilosis after 48 hrs by standard microbroth dilution assay. It counts as functional. The following applies: Lodderomyces parapsilosis.
In assay [13] the test system is Staphylococcus aureus. Briefly: microbe, parasite or virus in culture. As to conditions: ATCC 25923, 24 h. In kind it is functional.
Description: as §3
The test system of assay [14] is Trichophyton mentagrophytes. Briefly: Antimicrobial activity against Trichophyton mentagrophytes after 96 hrs by standard microbroth dilution assay. It counts as functional.

≈ marks a conversion by molar mass, not a printed value. Bounds are passed on as bounds.

Turning to GENTAMICIN, the MIC in [1] came to 25 µg/mL; in assay [2], 0.18 µg/mL; in assay [3] it was 0.78 µg/mL; in assay [4], 6.25 µg/mL.

For `Cc1cccc2c1CCC(Cn1ccnc1)/C2=N/OCc1ccccc1` (centres undefined), the MIC was 6.25 µg/mL (≈ 18.1 µM) in assay [5]; above 50 µg/mL in assay [6]; above 50 µg/mL in assay [7]; above 50 µg/mL in assay [8]; above 50 µg/mL in assay [9]; 0.781 µg/mL (≈ 2.26 µM) in assay [10]. In addition, the MIC was above 50 µg/mL in assay [11], above 50 µg/mL in assay [12], 1.56 µg/mL (≈ 4.52 µM) in assay [13] and above 50 µg/mL in [14].

As to `Clc1cccc(CO/N=C2/c3cccc(Br)c3CCC2Cn2ccnc2)c1` (centres undefined), the MIC was above 50 µg/mL in assay [5]; 50 µg/mL (≈ 112 µM) in assay [6]; above 50 µg/mL in assay [7]; above 50 µg/mL in assay [8]; above 50 µg/mL in [9]; above 50 µg/mL in assay [10]. Moreover, the MIC in [11] is 50 µg/mL (≈ 112 µM); in assay [12], above 50 µg/mL; in [13], 1.56 µg/mL (≈ 3.51 µM); in assay [14], 12.5 µg/mL (≈ 28.1 µM).
